Experimental data reported in US20230088214A1, “GLYCOLATE OXIDASE INHIBITORS FOR THE TREATMENT OF DISEASE” (BIOMARIN PHARMACEUTICAL INC., priority 2019, published 2023).

Each compound was assayed against T1, GO (Homo sapiens, UniProt Q9UJM8) (assay: GO Enzymatic Assay (Assay 1)). Details: Table 4; class symbols without asterisk, GO Enzymatic Assay (Assay 1); read-out: Range.
T1 sequence (Q9UJM8 1-370): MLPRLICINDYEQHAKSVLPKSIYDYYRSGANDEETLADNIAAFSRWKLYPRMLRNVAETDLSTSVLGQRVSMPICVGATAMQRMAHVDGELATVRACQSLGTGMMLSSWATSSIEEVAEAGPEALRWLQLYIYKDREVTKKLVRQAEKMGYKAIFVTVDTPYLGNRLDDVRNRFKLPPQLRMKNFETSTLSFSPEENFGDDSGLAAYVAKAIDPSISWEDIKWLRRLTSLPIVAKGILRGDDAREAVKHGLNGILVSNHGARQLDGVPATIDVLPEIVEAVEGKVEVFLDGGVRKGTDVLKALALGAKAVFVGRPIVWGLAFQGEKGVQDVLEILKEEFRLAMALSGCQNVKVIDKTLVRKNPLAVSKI
Format: biochemical
Design: purchased Novus Biologicals NBP1-72412
Procedure: Assay 1: GO Enzymatic Assay
GO was incubated with its substrate, glycolate, in 50 mM potassium phosphate buffer, pH 7. […] The enzyme was optimized and the kinetics was determined.
Compound inhibition was determined by adding various concentrations of inhibitors in the GO enzyme assay. The IC50 value for each measured compound was generated from sigmoidal dose-response (variable slope) curves with GraphPad Prism software (GraphPad Software, Inc., San Diego, Calif.) using the percent inhibition of GO activity relative to DMSO control.

Row | SMILES | IC50
1 | O=C(O)c1[nH]nnc1Sc1ccc(-c2ccc(N3CCCCC3)c(Cl)c2)cc1 [Compound 376, 4-((3′-chloro-4′-(piperidin-1-yl)-[1,1′-biphenyl]-4-yl)thio)-1H-1,2,3-triazole-5-carboxylic acid 2,2,2-trifluoroacetate] | < 100 nM
2 | O=C(O)c1[nH]nnc1CS[C@H]1CC[C@@H](c2cc(Cl)cc(Cl)c2)CC1 [Compound 377, 4-((((cis)-4-(3,5-dichlorophenyl)cyclohexyl)thio)methyl)-1H-1,2,3-triazole-5-carboxylic acid] | < 100 nM
3 | O=C(O)c1[nH]nnc1O[C@H]1CC[C@@H](c2ccc(N3CCCCC3=O)cc2)CC1 [Compound 379, 4-(((cis)-4-(4-(2-oxopiperidin-1-yl)phenyl)cyclohexyl)oxy)-1H-1,2,3-triazole-5-carboxylic acid] | < 100 nM
4 | O=C(O)c1[nH]nnc1CSC1CCN(c2cc(Cl)ccc2Cl)CC1 [Compound 383, 4-(((1-(2,5-dichlorophenyl)piperidin-4-yl)thio)methyl)-1H-1,2,3-triazole-5-carboxylic acid 2,2,2-trifluoroacetate] | < 100 nM
5 | O=C(O)c1[nH]nnc1CSC1CCN(c2ccc(Cl)c(Cl)c2)CC1 [Compound 384, 4-(((1-(3,4-dichlorophenyl)piperidin-4-yl)thio)methyl)-1H-1,2,3-triazole-5-carboxylic acid 2,2,2-trifluoroacetate] | < 100 nM
6 | O=C(O)c1[nH]nnc1SC1CCN(c2cc(Cl)ccc2OC(F)(F)F)CC1 [Compound 386, 4-((1-(5-chloro-2-(trifluoromethoxy)phenyl)piperidin-4-yl)thio)-1H-1,2,3-triazole-5-carboxylic acid 2,2,2-trifluoroacetate] | < 100 nM
7 | N#Cc1ccc(Oc2nn[nH]c2C(=O)O)cc1OCc1ccc(F)cc1 [Compound 390, 4-(4-cyano-3-((4-fluorobenzyl)oxy)phenoxy)-1H-1,2,3-triazole-5-carboxylic acid] | < 100 nM
8 | NC(=O)c1ccc(-c2ccc(Oc3nn[nH]c3C(=O)O)cc2)cc1 [Compound 397, 4-((4′-carbamoyl-[1,1′-biphenyl]-4-yl)oxy)-1H-1,2,3-triazole-5-carboxylic acid] | < 100 nM
9 | O=C(O)c1[nH]nnc1Sc1ccc(-c2ccc(Cl)cc2)c(OCC2CCCC2)c1 [Compound 398, 4-((4′-chloro-2-(cyclopentylmethoxy)-[1,1′-biphenyl]-4-yl)thio)-1H-1,2,3-triazole-5-carboxylic acid 2,2,2-trifluoroacetate] | < 100 nM
10 | O=C(O)c1[nH]nnc1O[C@H]1CC[C@H](c2ccc(-n3cnnc3)cc2)CC1 [Compound 403, 4-(((trans)-4-(4-(4H-1,2,4-triazol-4-yl)phenyl)cyclohexyl)oxy)-1H-1,2,3-triazole-5-carboxylic acid] | < 100 nM
11 | N#Cc1ccc([C@H]2C[C@H](Oc3nn[nH]c3C(=O)O)C2)cc1 [Compound 404, 4-((trans)-3-(4-cyanophenyl)cyclobutoxy)-1H-1,2,3-triazole-5-carboxylic acid 2,2,2-trifluoroacetate] | < 100 nM
12 | O=C(O)c1[nH]nnc1O[C@H]1CC[C@H](c2ccc(-n3cncn3)cc2)CC1 [Compound 405, 4-(((trans)-4-(4-(1H-1,2,4-triazol-1-yl)phenyl)cyclohexyl)oxy)-1H-1,2,3-triazole-5-carboxylic acid] | < 100 nM
13 | O=C(O)c1[nH]nnc1O[C@H]1CC[C@H](c2ccc3ncccc3c2)CC1 [Compound 409, 4-(((trans)-4-(quinolin-6-yl)cyclohexyl)oxy)-1H-1,2,3-triazole-5-carboxylic acid 2,2,2-trifluoroacetate] | < 100 nM
14 | O=C(O)c1[nH]nnc1S[C@H]1CC[C@H](c2ccc3ncccc3c2)CC1 [Compound 410, 4-(((trans)-4-(quinolin-6-yl)cyclohexyl)thio)-1H-1,2,3-triazole-5-carboxylic acid 2,2,2-trifluoroacetate] | < 100 nM
15 | O=C(O)c1[nH]nnc1S[C@H]1CC[C@H](c2cc(OC(F)(F)F)ccc2Cl)CC1 [Compound 411, 4-(((trans)-4-(2-chloro-5-(trifluoromethoxy)phenyl)cyclohexyl)thio)-1H-1,2,3-triazole-5-carboxylic acid] | < 100 nM
16 | O=C(O)c1[nH]nnc1O[C@H]1CC[C@H](c2ccc(N3CCCC3=O)cc2)CC1 [Compound 412, 4-(((trans)-4-(4-(2-oxopyrrolidin-1-yl)phenyl)cyclohexyl)oxy)-1H-1,2,3-triazole-5-carboxylic acid] | < 100 nM
17 | CN(C)C(=O)c1ccc([C@H]2CC[C@H](Oc3nn[nH]c3C(=O)O)CC2)cc1 [Compound 414, 4-(((trans)-4-(4-(dimethylcarbamoyl)phenyl)cyclohexyl)oxy)-1H-1,2,3-triazole-5-carboxylic acid 2,2,2-trifluoroacetate] | < 100 nM
18 | O=C(O)c1[nH]nnc1O[C@H]1CC[C@H](c2ccc(C(=O)N3CCOCC3)cc2)CC1 [Compound 416, 4-(((trans)-4-(4-(morpholine-4-carbonyl)phenyl)cyclohexyl)oxy)-1H-1,2,3-triazole-5-carboxylic acid 2,2,2-trifluoroacetate] | < 100 nM
19 | O=C(O)c1[nH]nnc1O[C@H]1CC[C@H](c2ccc(C(=O)N3CCCCC3)cc2)CC1 [Compound 417, 4-(((trans)-4-(4-(piperidine-1-carbonyl)phenyl)cyclohexyl)oxy)-1H-1,2,3-triazole-5-carboxylic acid 2,2,2-trifluoroacetate] | < 100 nM
20 | O=C(O)c1[nH]nnc1O[C@H]1CC[C@H](c2ccc(-n3cccn3)cc2)CC1 [Compound 418, 4-(((trans)-4-(4-(1H-pyrazol-1-yl)phenyl)cyclohexyl)oxy)-1H-1,2,3-triazole-5-carboxylic acid] | < 100 nM

Further lines, results first:

Row | IC50 | SMILES
21 | < 100 nM | O=C(O)c1[nH]nnc1Oc1cccc(OC2CCCCC2)c1 [Compound 380, 4-(3-(cyclohexyloxy)phenoxy)-1H-1,2,3-triazole-5-carboxylic acid 2,2,2-trifluoroacetate]
22 | < 100 nM | O=C(O)c1[nH]nnc1Oc1ccc(Cl)c(OC2CCCC2)c1 [Compound 381, 4-(4-chloro-3-(cyclopentyloxy)phenoxy)-1H-1,2,3-triazole-5-carboxylic acid 2,2,2-trifluoroacetate]
23 | 100 to 1000 nM | O=C(O)c1[nH]nnc1Sc1cccc(OC2CCCCC2)c1 [Compound 382, 4-((3-(cyclohexyloxy)phenyl)thio)-1H-1,2,3-triazole-5-carboxylic acid 2,2,2-trifluoroacetate]
24 | < 100 nM | O=C(O)c1[nH]nnc1Oc1ccc(-c2ccc(Cl)cc2)c(OCC2CCCC2)c1 [Compound 387, 4-((4′-chloro-2-(cyclopentylmethoxy)-[1,1′-biphenyl]-4-yl)oxy)-1H-1,2,3-triazole-5-carboxylic acid 2,2,2-trifluoroacetate]
25 | 1000 to 10000 nM | O=C(O)c1[nH]nnc1Oc1ccc(C2CCN(C3CCCCC3)CC2)cc1 [Compound 388, 4-(4-(1-cyclohexylpiperidin-4-yl)phenoxy)-1H-1,2,3-triazole-5-carboxylic acid 2,2,2-trifluoroacetate]
26 | < 100 nM | N#Cc1ccc(-c2ccc(Oc3nn[nH]c3C(=O)O)cc2Cl)cc1 [Compound 394, 4-((2-chloro-4′-cyano-[1,1′-biphenyl]-4-yl)oxy)-1H-1,2,3-triazole-5-carboxylic acid]
27 | < 100 nM | O=C(O)c1[nH]nnc1O[C@H]1CC[C@H](c2cc(OC(F)(F)F)ccc2Cl)CC1 [Compound 395, 4-(((trans)-4-(2-chloro-5-(trifluoromethoxy)phenyl)cyclohexyl)oxy)-1H-1,2,3-triazole-5-carboxylic acid]
28 | < 100 nM | O=C(O)c1[nH]nnc1O[C@H]1CC[C@@H](c2cc(OC(F)(F)F)ccc2Cl)CC1 [Compound 396, 4-(((cis)-4-(2-chloro-5-(trifluoromethoxy)phenyl)cyclohexyl)oxy)-1H-1,2,3-triazole-5-carboxylic acid]
29 | < 100 nM | O=C(O)c1[nH]nnc1Oc1ccc(Cl)c(OC2CCCCC2)c1 [Compound 399, 4-(4-chloro-3-(cyclohexyloxy)phenoxy)-1H-1,2,3-triazole-5-carboxylic acid 2,2,2-trifluoroacetate]
30 | < 100 nM | O=C(O)c1[nH]nnc1O[C@H]1CC[C@H](c2ccc(OC(F)(F)F)c(Cl)c2)CC1 [Compound 419, 4-(((trans)-4-(3-chloro-4-(trifluoromethoxy)phenyl)cyclohexyl)oxy)-1H-1,2,3-triazole-5-carboxylic acid]

Same assay, conditions: human GO, glycolate substrate, pH 7, percent inhibition relative to DMSO control; read-out: Range of IC50 values calculated from the enzymatic assays (Assay 1)

Row | IC50 | SMILES
31 | 1000 to 10000 nM | C[N+](C)(C)CCOC(=O)c1[nH]nnc1Sc1ccc(-c2ccc(OC(F)(F)F)cc2)cc1 [Compound 38, N,N,N-trimethyl-2-((4-((4′-(trifluoromethoxy)-[1,1′-biphenyl]-4-yl)thio)-1H-1,2,3-triazole-5-carbonyl)oxy)ethan-1-aminium iodide]
32 | < 100 nM | O=C(O)c1[nH]nnc1O[C@H]1CC[C@H](c2ccc(OC(F)(F)F)cc2)CC1 [Compound 272-1, 4-(((trans)-4-(4-(trifluoromethoxy)phenyl)cyclohexyl)oxy)-1H-1,2,3-triazole-5-carboxylic acid]
33 | < 100 nM | O=C(O)c1[nH]nnc1O[C@H]1CC[C@@H](c2ccc(OC(F)(F)F)cc2)CC1 [Compound 272-2, 4-(((cis)-4-(4-(trifluoromethoxy)phenyl)cyclohexyl)oxy)-1H-1,2,3-triazole-5-carboxylic acid]
